Our source for the IC50 values is patent US20070249648A1, “Novel Diazaspiroalkanes and Their Use for Treatment of Ccr8 Mediated Diseases” (priority 2003, published 2007).

For the assay, the target named is T1, human recombinant chemokine CCR8 receptor (Homo sapiens, UniProt P51685).
T1 construct: purchased Euroscreen ES-136-M; host or cells: CHO-K1 cells (membrane preparation)
The assay can be described thus: CCL1 SPA Binding Assay. The following applies: 125I CCL1 (30 pM) binding to membranes from CHO-K1 cells transfected with CCR8, Wheat Germ Agglutinin SPA beads; typical data. On the procedure: Membranes from CHO-K1 cells transfected with human recombinant chemokine CCR8 receptor (ES-136-M) were purchased from Euroscreen. Membrane preparations are stored at −70C in 7.5 mM Tris-Cl pH 7.5, 12.5 mM MgCl2, 0.3 mM EDTA, 1 mM EGTA, 250 mM sucrose until used.
The CCR8 membranes ([…]) were preincubated with Wheat Germ Agglutinin SPA beads (4.05 mg/ml) in assay buffer (50 mM HEPES, 1 mM CaCl2x2H2O, 5 mM MgCl2x6H2O, 75 mM NaCl, 0.1% BSA) at pH=7.4 for 2 hours on ice. A 10-point dose-response curve (final concentrations 50 μM, 16.7 μM, 5.6 μM, 1.9 μM, 0.62 μM, 0.21 μM, 0.069 μM, 0.023 μM) was prepared by diluting compounds by serial dilution 1:3 in DMSO. In the screening plate (Polystyrene NBS plates, Costar Corning 3604) 1 μl from the DMSO solutions of compounds was transferred into each well. 1 μl of DMSO was added to the blank control wells and 1 μl unlabeled CCL1 (300 nM) was added to background control wells. 50 μl of the SPA bead-membrane mixture was added into each well. Finally, 50 μl (30 pM) ^125I CCL1 (2000 Ci/mM) was added to each well. Plates were then incubated at RT with shaking (700 rpm) for 90 minutes followed by 30 minutes at RT without shaking. The plate was read in a Wallac MicroBeta counter for 2 minutes/well.

Broadly, the pIC50 is the IC50 on a negative log10 scale, so that one unit is a factor of ten.

Molecules are shown by their SMILES. pIC50: −log10 of the molar value. Structures can show the parent of a compound that is named as a salt.

T1 sequence (P51685 whole entry): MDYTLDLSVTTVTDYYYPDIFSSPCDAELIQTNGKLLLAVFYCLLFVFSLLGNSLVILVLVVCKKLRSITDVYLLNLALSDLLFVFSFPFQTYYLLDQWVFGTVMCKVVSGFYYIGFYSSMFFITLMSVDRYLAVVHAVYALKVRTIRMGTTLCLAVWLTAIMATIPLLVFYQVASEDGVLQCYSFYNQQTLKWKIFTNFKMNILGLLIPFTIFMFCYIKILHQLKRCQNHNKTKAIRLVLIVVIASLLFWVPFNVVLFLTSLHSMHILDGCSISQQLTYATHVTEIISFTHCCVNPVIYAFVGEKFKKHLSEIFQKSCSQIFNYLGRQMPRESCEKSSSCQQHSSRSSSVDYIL

In the case of `CCCOc1ccccc1CN1CCC2(CC1)CCN(C(=O)c1ccccc1)CC2` [3-benzoyl-9-(2-propoxybenzyl)-3,9-diazaspiro[5.5]undecane trifluoroacetate], the pIC50 was 6.78.
With `Cc1noc(C)c1COc1ccccc1CN1CCC2(CC1)CCN(C(=O)c1ccccc1)CC2` [3-benzoyl-9-{2-[(3,5-dimethylisoxazol-4-yl)methoxy]benzyl}-3,9-diazaspiro[5.5]undecane trifluoroacetate] the figure was 6.15.
